Assay: In vivo permeability / PK after intrajejunal administration in cannulated rats (Example 7)
Set-up: species or system male Wistar rats
Conditions: rat
Protocol: An in vivo permeability study of Aramchol salts was performed in male Wistar rats cannulated in the jugular vein and in the jejunum. Intestinal cannulation was performed in order to bypass protonation of Aramchol salts in acidic gastric pH. Aramchol salts solubilized in PBS (30 mg/mL) were administered to rats intestine (jejunum) in a dose of 100 mg/kg (based on free acid), via a cannula inserted into the proximal side of the jejunum. A suspension of Aramchol free acid (in PBS, 30 mg/mL) was administered via the same route and was used as control. Blood samples were withdrawn via a cannula inserted into jugular vein at pre-determined time points (pre-dose, 1 hr, 2 hr, 4 hr, 8 hr, 12 hr, 24 hr post dose). Plasma concentrations of Aramchol (free acid) were measured using a liquid chromatography-tandem mass spectrometry (LC-MS-MS) method by Analyst Bioanalytical Laboratories, Israel. All PK parameters were calculated using non-compartmental analysis. Only those plasma concentrations equal to or greater than the lower limit of quantitation (LOQ) (48.66 ng/mL) were used in the analysis. Plasma concentrations <LOQ that occurred from pre-dose to the first concentration ≥LOQ were treated as 0. Actual sampling times were used for all pharmacokinetic analyses. The following PK parameters were calculated: maximum plasma concentration (Cmax), time to Cmax (Tmax), area under the plasma concentration-time curve from time of administration until the last plasma concentration (AUC0-4), AUC/dose, elimination half-life (t½). Cmax and Tmax were taken directly from the data. Area under the curve from zero to the final sample with a concentration ≥LOQ. AUC0-4 was calculated using the linear trapezoidal method.

[1] = 100 mg/kg, mean ± standard error

## 3β-arachidylamido-7α,12α-dihydroxy-5β-cholan-24-oic acid N-methylglucamine salt
  increase in Cmax compared to Aramchol free acid: 3.6 fold
100 mg/kg (based on free acid) in PBS 30 mg/mL, plasma Aramchol (free acid), mean ± standard error
  Cmax: 5012.1 ± 1879.9 (5) ng/mL
[1]
  AUC(0-t): 33625.2 ± 9567.7 (5) hr × ng/mL
  AUC/dose: 331.7 ± 82.5 (5) hr × ng × kg/mL × mg
  t1/2: 5.2 ± 1.0 (5) hr
100 mg/kg, median
  Tmax: 4.0 (5) [2-4] hr
